# Reference: US4288597A, “1,2-Diacylamino-1,2-di(4-pyridyl)ethanes and process for producing thereof” (Laboratorios Made, S.A., priority 1979, dated 1981)
# Experiments:
# [1] = Acute toxicity, lethal dose 50 (Litchfield-Wilcoxon), intraperitoneal; conditions: mouse, in vivo, ip, mice, deaths recorded three days after administration
# Description: (§1) The object of the studies carried out on all the products was to calculate the acute toxicity, expressed in the form of lethal dose 50, and to evaluate the analgesic effect by administering the drugs orally and intraperitoneally.
# Tests were carried out on I.C.R. Swiss albino mice of both sexes weighing between 20 and 35 grams. The products were administered intraperitoneally,recording the number of dead animals three days after administration of the drugs. The statistical method used for the calculation of lethal dose 50 was the Litchfield-Wilcoxon method.
# [2] = Analgesic effect by intraperitoneal route (Siegmund technique modified by Koster, 1% acetic acid irritant); type: in vivo; conditions: products 1 mg/kg, reference 25 mg/kg, 30 minutes after administration, dextropropoxyphene = 1
# Description: There is a series of 19 products, with analgesic activity, the effects whereof were tested using dextropropoxyphene as a reference drug.
# as §1
# 1. ACTIVITY BY INTRAPERITONEAL ROUTE
# (§2) The analgesic effect was evaluated according to the technique of Siegmund et al. (Proc. Soc. Exp. Biol. Med. 95, 729, 1957) modified by Koster et al. (Fed. Proc. 18, 412, 1957), a chemical analgesia test which uses 1% acetic acid as an irritant. The drugs under study were administered at the dose of 1 mg/kg and the reference drug at 25 mg/kg. The evaluation was made 30 minutes after the administrations. The results are given in Table B-1, expressing the results in the form of relative potency (F), giving dextropropoxyphene value 1. [formula]
# [3] = Analgesic effect by oral route (Siegmund technique modified by Koster, 1% acetic acid irritant); type: in vivo; conditions: products 5 mg/kg, dextropropoxyphene = 1
# Description: as §1, §2
# 2. ACTIVITY BY ORAL ROUTE
# The foregoing procedure was used, with the difference that the dose of the products under study was 5 mg/kg.
SMILES,LD50 at 72 h [1],"Analgesic effect by intraperitoneal route, relative potency F [2]","Analgesic effect by oral route, relative potency F [3]"
"CCC(=O)O[C@](Cc1ccccc1)(c1ccccc1)[C@H](C)CN(C)C [Dextropropoxyphene, dextropropoxyphene, reference compound]",140 mg/kg,–,–
CC(=O)NC(c1ccncc1)C(NC(C)=O)c1ccncc1 (stereo not shown) [Example 1],1120 mg/kg,1.01,0.85
CCCC(CCC)C(=O)NC(c1ccncc1)C(NC(=O)C(CCC)CCC)c1ccncc1 (stereo not shown) [Example 2],> 1600 mg/kg,1.43,0.95
O=C(NC(c1ccncc1)C(NC(=O)c1ccccc1)c1ccncc1)c1ccccc1 (stereo not shown) [Example 3],> 1300 mg/kg,1.21,1.35
Cc1ccc(C(=O)NC(c2ccncc2)C(NC(=O)c2ccc(C)cc2)c2ccncc2)cc1 (stereo not shown) [Example 4],> 1660 mg/kg,1.04,1.11
Cc1cccc(C(=O)NC(c2ccncc2)C(NC(=O)c2cccc(C)c2)c2ccncc2)c1 (stereo not shown) [Example 5],> 1400 mg/kg,1.85,1.64
Cc1ccccc1C(=O)NC(c1ccncc1)C(NC(=O)c1ccccc1C)c1ccncc1 (stereo not shown) [Example 6],> 1600 mg/kg,1.09,1.67
Cc1cc(C)cc(C(=O)NC(c2ccncc2)C(NC(=O)c2cc(C)cc(C)c2)c2ccncc2)c1 (stereo not shown) [Example 7],> 1600 mg/kg,1.53,1.17
O=C(NC(c1ccncc1)C(NC(=O)c1ccc(Cl)cc1)c1ccncc1)c1ccc(Cl)cc1 (stereo not shown) [Example 8],> 1600 mg/kg,1.58,1.29
O=C(NC(c1ccncc1)C(NC(=O)c1cccc(Cl)c1)c1ccncc1)c1cccc(Cl)c1 (stereo not shown) [Example 9],> 1300 mg/kg,1.08,1.05
O=C(NC(c1ccncc1)C(NC(=O)c1ccccc1Cl)c1ccncc1)c1ccccc1Cl (stereo not shown) [Example 10],1060 mg/kg,1.37,1.34
O=C(NC(c1ccncc1)C(NC(=O)c1cc(Cl)cc(Cl)c1)c1ccncc1)c1cc(Cl)cc(Cl)c1 (stereo not shown) [Example 11],> 1200 mg/kg,0.84,1.22
O=C(NC(c1ccncc1)C(NC(=O)c1ccc(F)cc1)c1ccncc1)c1ccc(F)cc1 (stereo not shown) [Example 12],1110 mg/kg,1.17,0.81
O=C(NC(c1ccncc1)C(NC(=O)c1ccc(C(F)(F)F)cc1)c1ccncc1)c1ccc(C(F)(F)F)cc1 (stereo not shown) [Example 13],> 1200 mg/kg,1.38,1.19
COc1ccc(C(=O)NC(c2ccncc2)C(NC(=O)c2ccc(OC)cc2)c2ccncc2)cc1 (stereo not shown) [Example 14],> 1600 mg/kg,1.09,1.23
CS(=O)(=O)c1ccc(C(=O)NC(c2ccncc2)C(NC(=O)c2ccc(S(C)(=O)=O)cc2)c2ccncc2)cc1 (stereo not shown) [Example 15],> 2000 mg/kg,1.43,1.05
O=C(NC(c1ccncc1)C(NC(=O)c1ccc([N+](=O)[O-])cc1)c1ccncc1)c1ccc([N+](=O)[O-])cc1 (stereo not shown) [Example 16],> 1600 mg/kg,1.38,1.25
CC(C)(C)c1ccc(C(=O)NC(c2ccncc2)C(NC(=O)c2ccc(C(C)(C)C)cc2)c2ccncc2)cc1 (stereo not shown) [Example 17],> 1600 mg/kg,1.11,1.17
O=C(Cc1ccccc1)NC(c1ccncc1)C(NC(=O)Cc1ccccc1)c1ccncc1 (stereo not shown) [Example 18],1540 mg/kg,0.96,2.13
O=C(NC(c1ccncc1)C(NC(=O)c1ccc(-c2ccccc2)cc1)c1ccncc1)c1ccc(-c2ccccc2)cc1 (stereo not shown) [Example 19],> 1600 mg/kg,1.08,1.13
